Assay results as given in patent EP4737452A1, “NOVEL PYRIMIDINE DERIVATIVES” (Aigen Sciences Inc., priority 2023, dated 2025).
Read-outs that look alike come from different tables or passages of the source.

What was measured:
USP1 enzyme = USP1 enzyme (Homo sapiens, UniProt O94782); experiment: Biochemical analysis of USP1 enzyme activity (ubiquitin-rhodamine 110 deubiquitination, fluorescence); conditions: ubiquitin-rhodamine 110 substrate, 10 minutes pre-incubation, 30 minutes reaction at room temperature; read-out: Enzyme activity IC50 grade
Procedure: In this experimental example, the inhibitory effect of the compounds according to the present invention and the positive control compound on USP1 deubiquitinating activity was tested using a biochemical enzymatic assay. Ubiquitin-rhodamine 110 was used as a substrate for measuring deubiquitinating activity. This substrate compound is a substance in which rhodamine 110 is linked to the glycine residue at the C-terminus of ubiquitin by an amide bond. When this amide bond is cleaved by the deubiquitinating activity, a fluorescent signal is counted.
Subsequently, analytical buffer solution (50 mM hydroxyethylpiperazineethanesulfonic acid (HEPES) containing USP1 enzyme, 100 mM NaCl, 2 mM tris(2-carboxyethyl)phosphine (TCEP), and 100 µg/mL bovine serum albumin (BSA)) were added to each well of the plate and incubated at room temperature for 10 minutes. Subsequently, analytical y buffer solution containing ubiquitin-rhodamine 110 was added to each well and reacted at room temperature for 30 minutes.

MDA-MB-436 = experiment: Cell survival analysis (CellTiter-Glo, 10 days culture); assay type: cell-based; conditions: Homo sapiens, read-out: Cell growth IC50 grade
Procedure: In this experimental example, the cell growth inhibitory effect of compounds according to the present invention and positive control compounds in tumor cell lines was examined.
MDA-MB-436 (ATCC, #HTB-130) cell line was cultured in cell culture medium (Leibovitz's L-15 (GIBCO catalog no. 11415064) + 10 µg/mL insulin (Yeasen catalog no. 40112ES25) + 16 µg/mL glutathione (GIBCO catalog no. 25030-081) + 10% fetal bovine serum (FBS) (Excell Bio catalog no. FSP500)). 3,000 MDA-MB-436 cells were plated per well in a 96-well plate and cultured for 1 day at 37°C in 5% CO2. […] The cells were then cultured in a cell incubator for 10 days, and the cell culture medium containing the compound was replaced on the 5th day of culture. Cell survival rate was analyzed for luminescence using the Promega CellTiter-Glo Luminescent Cell Viability Assay Kit (Promega catalog number G7573), and the luminescence was measured using a PerkinElmer EnVision instrument. The percentage of cell growth inhibition rate was calculated from the measured relative luminescence unit (RLU) as follows. Inhibition rate = 1−((RLU compound−RLU blank)/(RLU control−RLU blank)) × 100 [formula]

[1] = 240 h, MDA-MB-436 cell line, cultured for 10 days, CellTiter-Glo

USP1 enzyme, sequence (O94782 whole entry): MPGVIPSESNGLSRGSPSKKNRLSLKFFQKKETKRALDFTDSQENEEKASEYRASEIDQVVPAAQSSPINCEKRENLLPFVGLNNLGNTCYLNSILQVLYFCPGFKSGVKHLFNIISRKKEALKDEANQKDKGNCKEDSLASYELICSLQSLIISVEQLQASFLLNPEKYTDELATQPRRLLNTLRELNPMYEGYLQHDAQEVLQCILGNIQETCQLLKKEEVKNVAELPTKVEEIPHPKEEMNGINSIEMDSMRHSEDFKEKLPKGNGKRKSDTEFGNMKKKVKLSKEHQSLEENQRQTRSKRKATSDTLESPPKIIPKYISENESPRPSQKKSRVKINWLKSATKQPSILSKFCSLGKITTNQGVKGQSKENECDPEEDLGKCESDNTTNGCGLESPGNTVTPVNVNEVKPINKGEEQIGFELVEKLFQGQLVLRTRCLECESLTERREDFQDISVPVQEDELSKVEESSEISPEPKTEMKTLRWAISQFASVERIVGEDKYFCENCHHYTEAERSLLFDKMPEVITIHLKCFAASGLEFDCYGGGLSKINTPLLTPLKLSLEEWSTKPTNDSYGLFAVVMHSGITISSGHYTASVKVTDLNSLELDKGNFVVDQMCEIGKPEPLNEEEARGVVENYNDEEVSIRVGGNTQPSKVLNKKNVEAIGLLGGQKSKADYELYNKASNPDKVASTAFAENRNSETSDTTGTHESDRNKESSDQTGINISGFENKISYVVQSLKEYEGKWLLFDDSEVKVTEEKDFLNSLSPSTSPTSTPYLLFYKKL
USP1 enzyme, sequence (Q8TAF3 whole entry partner): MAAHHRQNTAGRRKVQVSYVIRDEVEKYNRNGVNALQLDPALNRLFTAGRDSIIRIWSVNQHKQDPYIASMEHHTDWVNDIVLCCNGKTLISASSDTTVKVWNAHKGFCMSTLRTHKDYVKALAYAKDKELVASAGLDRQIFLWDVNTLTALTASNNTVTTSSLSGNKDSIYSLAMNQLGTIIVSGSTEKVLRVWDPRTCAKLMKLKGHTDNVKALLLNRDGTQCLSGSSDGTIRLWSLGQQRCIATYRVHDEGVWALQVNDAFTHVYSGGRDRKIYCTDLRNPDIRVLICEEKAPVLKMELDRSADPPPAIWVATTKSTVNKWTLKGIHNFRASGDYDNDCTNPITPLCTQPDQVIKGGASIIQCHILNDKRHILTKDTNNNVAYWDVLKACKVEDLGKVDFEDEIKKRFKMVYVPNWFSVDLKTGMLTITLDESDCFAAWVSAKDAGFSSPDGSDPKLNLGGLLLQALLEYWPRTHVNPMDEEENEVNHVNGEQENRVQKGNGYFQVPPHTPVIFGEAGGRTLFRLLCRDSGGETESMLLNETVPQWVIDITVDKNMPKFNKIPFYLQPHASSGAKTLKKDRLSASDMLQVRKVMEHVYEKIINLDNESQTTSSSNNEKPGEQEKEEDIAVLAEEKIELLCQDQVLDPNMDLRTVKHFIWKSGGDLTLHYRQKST

Row | Compound | IC50 (USP1 enzyme) [nM] | IC50 (MDA-MB-436; [1]) [nM] | IC50 (MDA-MB-436; MDA-MB-436, 240 h) [nM]
1 | COc1ncnc(C2CC2)c1-c1ncc(P(C)(C)=O)c(NCc2ccc(-c3nc(C(F)(F)F)cn3C)cc2)n1 [Example 2, (4'-cyclopropyl-6'-methoxy-4-((4-(1-methyl-4-(trifluoromethyl)-1H-imidazol-2-yl)benzyl)amino)-[2,5'-bipyrimidine]-5-yl)dimethylphosphine oxide] | 50 to 100 | 100 to 500 | –
2 | Cc1cnn(C(C)C)c1-c1ncc(P(C)(C)=O)c(NCc2ccc(-c3nc(C(F)(F)F)cn3C)cc2)n1 [Example 3, (2-(1-isopropyl-4-methyl-1H-pyrazole-5-yl)-4-((4-(1-methyl-4-(trifluoromethyl)-1H-imidazol-2-yl)benzyl)amino)pyrimidin-5-yl)dimethylphosphine oxide] | > 100 | > 500 | –
3 | CC(C)c1ncccc1-c1ncc(P(C)(C)=O)c(NCc2ccc(-c3nc(C(F)(F)F)cn3C)cc2)n1 [Example 4, (2-(2-isopropylpyridine-3-yl)-4-((4-(1-methyl-4-(trifluoromethyl)-1H-imidazol-2-yl)benzyl)amino)pyrimidin-5-yl)dimethylphosphine oxide] | > 100 | 100 to 500 | –
4 | [2H]C([2H])([2H])Oc1ncnc(C2CC2)c1-c1ncc(P(C)(C)=O)c(NCc2ccc(-c3nc(C(F)(F)F)cn3C)cc2)n1 [Example 5, (4'-cyclopropyl-6'-(methoxy-d3)-4-((4-(1-methyl-4-(trifluoromethyl)-1H-imidazol-2-yl)benzyl)amino)-[2,5'-bipyrimidine]-5-yl)dimethylphosphine oxide] | 50 to 100 | 100 to 500 | –
5 | Cn1cc(C(F)(F)F)nc1-c1ccc(CNc2nc(-c3cccnc3OC(F)F)ncc2P(C)(C)=O)cc1 [Example 6, (2-(2-(difluoromethoxy)pyridin-3-yl)-4-((4-(1-methyl-4-(trifluoromethyl)-1H-imidazol-2-yl)benzyl)amino)pyrimidin-5-yl)dimethylphosphine oxide] | > 100 | 100 to 500 | –
6 | COc1ncnc(C2CC2)c1-c1ncc(P(C)(C)=O)c(NCc2ccc(-c3nc(C(F)(F)F)cn3C3CC3)cc2)n1 [Example 8, (4'-cyclopropyl-4-((4-(1-cyclopropyl-4-(trifluoromethyl)-1H-imidazol-2-yl)benzyl)amino)-6'-methoxy-[2,5'-bipyrimidine]-5-yl)dimethylphosphine oxide] | < 50 | < 100 | –
7 | COc1ncnc(C2CC2)c1-c1ncc(P(C)(C)=O)c(NCC23CCC(c4nc(C(F)(F)F)cn4C)(CC2)CC3)n1 [Example 10, (4'-cyclopropyl-6'-methoxy-4-(((4-(1-methyl-4-(trifluoromethyl)-1H-imidazol-2-yl)bicyclo[2.2.2]octan-1-yl)methyl)amino)-[2,5'-bipyrimidine]-5-yl)dimethylphosphine oxide] | 50 to 100 | 100 to 500 | –
8 | COc1ncnc(C2CC2)c1-c1ncc(P(C)(C)=O)c(NCC23C4C5C2C2C3C4C52c2nc(C(F)(F)F)cn2C)n1 [Example 11, (4'-cyclopropyl-6'-methoxy-4-((((1s,2R,3s,4r,5S,6r,7R,8S)-4-(1-methyl-4-(trifluoromethyl)-1H-imidazol-2-yl)cuban-1-yl)methyl)amino)-[2,5'-bipyrimidine]-5-yl)dimethylphosphine oxide] | < 50 | – | < 100
9 | COc1ncnc(C2CC2)c1-c1ncc(P(C)(C)=O)c(NCc2ccc(-c3nc(C(F)(F)F)cn3C(C)C)cc2)n1 [Example 12, (4'-cyclopropyl-4-((4-(1-isopropyl-4-(trifluoromethyl)-1H-imidazol-2-yl)benzyl)amino)-6'-methoxy-[2,5'-bipyrimidine]-5-yl)dimethylphosphine oxide] | 50 to 100 | 100 to 500 | –
10 | COc1ncnc(C2CC2)c1-c1ncc(P(C)(C)=O)c(NCc2ccc(-n3nc(C(F)(F)F)cc3C(C)C)cc2)n1 [Example 15, (4'-cyclopropyl-4-((4-(5-isopropyl-3-(trifluoromethyl)-1H-pyrazole-1-yl)benzyl)amino)-6'-methoxy-[2,5'-bipyrimidine]-5-yl)dimethylphosphine oxide] | < 50 | < 100 | –
11 | COc1ncnc(C2CC2)c1-c1ncc(P(C)(C)=O)c(NCc2ccc(-n3nc(C(F)(F)F)cc3C3CC3)cc2)n1 [Example 17, (4'-cyclopropyl-4-((4-(5-cyclopropyl-3-(trifluoromethyl)-1H-pyrazole-1-yl)benzyl)amino)-6'-methoxy-[2,5'-bipyrimidine]-5-yl)dimethylphosphine oxide] | < 50 | < 100 | –
12 | Cc1cnc(-c2ccccc2C(C)C)nc1NCc1ccc(-n2ccnn2)cc1 [ML323, N-(4-(1H-1,2,3-triazol-1-yl)benzyl)-5-methyl-2-(2-isopropylphenyl)pyrimidin-4-amine, reference compound] | – | > 500 | –

More lines, main results first:

Row | IC50 (USP1 enzyme) [nM] | Compound | IC50 (MDA-MB-436; [1]) [nM] | IC50 (MDA-MB-436; MDA-MB-436, 240 h) [nM]
13 | 50 to 100 | COc1ncnc(C2CC2)c1-c1ncc(P(C)(C)=O)c(NCc2ccc(-c3nc(C(F)(F)F)cn3C)c(F)c2)n1 [Example 7, (4'-cyclopropyl-4-((3-fluoro-4-(1-methyl-4-(trifluoromethyl)-1H-imidazol-2-yl)benzyl)amino)-6'-methoxy-[2,5'-bipyrimidine]-5-yl)dimethylphosphine oxide] | < 100 | –
14 | < 50 | COc1ncnc(C2CC2)c1-c1ncc(P(C)(C)=O)c(NCc2ccc(-n3nc(C(F)(F)F)cc3C)cc2)n1 [Example 9, (4'-cyclopropyl-6'-methoxy-4-((4-(5-methyl-3-(trifluoromethyl)-1H-pyrazole-1-yl)benzyl)amino)-[2,5'-bipyrimidine]-5-yl)dimethylphosphine oxide] | < 100 | –
15 | < 50 | COc1ncnc(C2CC2)c1-c1ncc(P(C)(C)=O)c(NCc2ccc(-c3nc(C(F)(F)F)cn3C(C)C)c(F)c2)n1 [Example 13, (4'-cyclopropyl-4-((3-fluoro-4-(1-isopropyl-4-(trifluoromethyl)-1H-imidazol-2-yl)benzyl)amino)-6'-methoxy-[2,5'-bipyrimidine]-5-yl)dimethylphosphine oxide] | < 100 | –
16 | < 50 | COc1ncnc(C2CC2)c1-c1ncc(P(C)(C)=O)c(NCc2ccc(-n3nc(C(F)(F)F)cc3C)c(F)c2)n1 [Example 14, (4'-cyclopropyl-4-((3-fluoro-4-(5-methyl-3-(trifluoromethyl)-1H-pyrazole-1-yl)benzyl)amino)-6'-methoxy-[2,5'-bipyrimidine]-5-yl)dimethylphosphine oxide] | < 100 | –
17 | < 50 | COc1ncnc(C2CC2)c1-c1ncc(P(C)(C)=O)c(NCc2ccc(-n3nc(C(F)(F)F)cc3C(C)C)c(F)c2)n1 [Example 16, (4'-cyclopropyl-4-((3-fluoro-4-(5-isopropyl-3-(trifluoromethyl)-1H-pyrazol-1-yl)benzyl)amino)-6'-methoxy-[2,5'-bipyrimidine]-5-yl)dimethylphosphine oxide] | < 100 | –
18 | < 50 | COc1ncnc(C2CC2)c1-c1ncc(P(C)(C)=O)c(NCc2ccc(-n3nc(C(F)(F)F)cc3C3CC3)c(F)c2)n1 [Example 18, (4'-cyclopropyl-4-((4-(5-cyclopropyl-3-(trifluoromethyl)-1H-pyrazole-1-yl)-3-fluorobenzyl)amino)-6'-methoxy[2,5'-bipyrimidine]-5-yl)dimethylphosphine oxide] | < 100 | –
